# Where a name gives a salt, the structure may show the parent alone.
# Assays:
# Adrenergic β2 = target: T1, Adrenergic β2 (Homo sapiens, UniProt P07550); experiment: Adrenergic β2 mediated cAMP production in H292 cells (AlphaScreen cAMP detection); assay type: cell-based; set-up: key to β2 Int Act: fraction of formoterol maximum activity (formoterol = 1); conditions: for β2 Int Act: Intrinsic Activity as a fraction relative to the maximum activity determined for formoterol; for EC50: cAMP production, 60 minutes at room temperature, 300 μM rolipram, read-out: β2 pEC50 (converted)
# T1 construct: Adherent H292 cells were removed from tissue culture flasks; endogenous in cells; host or cells: H292 cells
# T1 sequence (P07550 whole entry): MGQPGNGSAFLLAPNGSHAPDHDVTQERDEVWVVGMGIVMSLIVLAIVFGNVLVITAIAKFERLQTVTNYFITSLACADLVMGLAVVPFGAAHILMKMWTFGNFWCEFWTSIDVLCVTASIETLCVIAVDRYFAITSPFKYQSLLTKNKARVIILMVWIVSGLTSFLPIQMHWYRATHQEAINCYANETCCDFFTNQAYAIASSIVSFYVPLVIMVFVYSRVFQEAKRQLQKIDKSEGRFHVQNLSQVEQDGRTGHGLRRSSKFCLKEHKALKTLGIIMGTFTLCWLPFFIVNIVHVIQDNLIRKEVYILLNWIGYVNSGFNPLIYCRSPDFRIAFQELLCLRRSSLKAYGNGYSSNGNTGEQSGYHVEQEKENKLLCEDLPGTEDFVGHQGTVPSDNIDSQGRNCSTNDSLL
# Method in brief: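 H292 cells pre-treated 10 min with rolipram (300 μM final), then given agonist for 60 min at room temperature in HBSS/10 mM HEPES pH 7.4, 1.6% DMSO final. Lysate cAMP measured by AlphaScreen against a cAMP standard curve. Four-parameter fit gives pEC50; intrinsic activity relative to formoterol maximum.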
# [1] = target: T2, recombinant human adrenergic beta 1 receptors (Homo sapiens, UniProt P08588); experiment: Adrenergic β1 selectivity assay, [125I]-Iodocyanopindolol binding to membranes; conditions: inhibition of [125I]-Iodocyanopindolol binding, read-out: β1 bind pIC50 (converted)
# T2 construct: purchased Euroscreen
# T2 sequence (P08588 whole entry): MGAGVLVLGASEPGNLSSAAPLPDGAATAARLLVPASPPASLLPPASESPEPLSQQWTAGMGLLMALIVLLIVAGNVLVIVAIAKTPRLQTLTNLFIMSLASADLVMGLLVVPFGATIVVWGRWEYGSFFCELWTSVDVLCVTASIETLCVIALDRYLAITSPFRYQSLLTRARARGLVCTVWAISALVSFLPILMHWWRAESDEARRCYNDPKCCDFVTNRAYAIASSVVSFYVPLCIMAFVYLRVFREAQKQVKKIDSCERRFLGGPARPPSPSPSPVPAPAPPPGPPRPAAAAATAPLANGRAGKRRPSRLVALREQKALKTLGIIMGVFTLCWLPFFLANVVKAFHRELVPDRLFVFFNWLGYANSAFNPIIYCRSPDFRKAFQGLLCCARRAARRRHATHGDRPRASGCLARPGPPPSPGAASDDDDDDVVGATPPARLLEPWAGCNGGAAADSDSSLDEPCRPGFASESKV
# Method in brief: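 Recombinant human β1 membranes in HEPES buffer pH 7.4 with 120 mM NaCl were incubated 2 hours at room temperature with 0.036 nM [^125I]-Iodocyanopindolol. Nonspecific binding defined by 10 μM propranolol; bound radioactivity counted after filtration. pIC50 from four-parameter logistic fit.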
# [2] = target: T3, recombinant human Dopamine Subtype D2s receptors (Homo sapiens, UniProt P14416); experiment: Dopamine D2 selectivity assay, [3H]-spiperone binding to membranes; conditions: inhibition of [3H]-spiperone binding, read-out: D2 bind pIC50 (converted)
# T3 construct: purchased Perkin Elmer
# T3 sequence (P14416 1-414 isoform P14416-2): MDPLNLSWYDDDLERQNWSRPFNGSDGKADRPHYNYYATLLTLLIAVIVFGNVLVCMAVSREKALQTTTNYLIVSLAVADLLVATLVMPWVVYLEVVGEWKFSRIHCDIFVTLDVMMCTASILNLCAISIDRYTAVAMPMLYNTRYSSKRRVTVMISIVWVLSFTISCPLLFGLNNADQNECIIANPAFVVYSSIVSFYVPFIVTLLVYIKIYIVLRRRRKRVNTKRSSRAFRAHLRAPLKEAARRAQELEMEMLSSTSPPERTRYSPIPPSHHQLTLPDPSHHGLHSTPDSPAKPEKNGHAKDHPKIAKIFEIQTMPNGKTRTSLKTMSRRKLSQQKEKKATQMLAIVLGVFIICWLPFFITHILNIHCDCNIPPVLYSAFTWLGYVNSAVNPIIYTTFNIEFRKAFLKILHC
# Method in brief: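 Human D2s receptor membranes incubated 2 h at room temperature with 0.16 nM [3H]-spiperone and test compound in HEPES buffer pH 7.4 (120 mM NaCl, 0.1% gelatin). Non-specific binding defined with 10 μM haloperidol; filter-bound radioactivity counted, pIC50 from four-parameter logistic fit.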
Compound,β2 Int Act (Adrenergic β2),EC50 (Adrenergic β2) [µM],IC50 [1] [µM],IC50 [2] [µM]
"O=C1COc2c(CCNCCN(C(=O)CCOCCc3ccccc3F)C3CCCCC3)ccc(O)c2N1 [Example 76, N-Cyclohexyl-3-(2-fluorophenethoxy)-N-(2-(2-(5-hydroxy-3-oxo-3,4-dihydro-2H-benzo[b][1,4]oxazin-8-yl)ethylamino)ethyl)propanamide trifluoroacetate]",1.1,0.00158,2,2.51
"O=C(CCNCCc1cc(F)ccc1F)N(CCNCCc1ccc(O)c2[nH]c(=O)ccc12)C1CCCCC1 [Example 17, N-Cyclohexyl-3-(2,5-difluorophenethylamino)-N-(2-(2-(8-hydroxy-2-oxo-1,2-dihydroquinolin-5-yl)ethylamino)ethyl)propanamide bis(trifluoroacetate)]",0.93,0.00398,12.6,1.26
"CC[C@@H](C)N(CCNCCc1ccc(O)c2[nH]c(=O)ccc12)C(=O)CCOCCc1ccccc1.Cl [Example 79, (R)—N-sec-Butyl-N-(2-(2-(8-hydroxy-2-oxo-1,2-dihydroquinolin-5-yl)ethylamino)ethyl)-3-phenethoxypropanamide hydrochloride]",0.92,0.0501,> 10,> 10
"CCCC[C@@H](C)N(CCNCCc1ccc(O)c2c1OCC(=O)N2)C(=O)CCNCCc1cc(C)ccc1F [Example 56, (R)-3-(2-Fluoro-5-methylphenethylamino)-N-(hexan-2-yl)-N-(2-(2-(5-hydroxy-3-oxo-3,4-dihydro-2H-benzo[b][1,4]oxazin-8-yl)ethylamino)ethyl)propanamide bis(trifluoroacetate)]",0.91,0.00794,2,0.0316
"O=C1COc2c(CCNCCN(C(=O)CCNCCc3ccc(Cl)c(Cl)c3)C3CCCCCC3)ccc(O)c2N1 [Example 26, N-Cycloheptyl-3-(3,4-dichlorophenethylamino)-N-(2-(2-(5-hydroxy-3-oxo-3,4-dihydro-2H-benzo[b][1,4]oxazin-8-yl)ethylamino)ethyl)propanamide bis(trifluoroacetate)]",0.74,0.00251,2,0.0316
"O=CNc1cc(CCNCCN(C(=O)CCNCCc2ccccc2)C2CCCCC2)ccc1O [Example 21, N-Cyclohexyl-N-(2-(3-formamido-4-hydroxyphenethylamino)ethyl)-3-(phenethylamino)propanamide]",0.83,0.0316,> 10,1.26

# Next, values leading:
β2 Int Act (Adrenergic β2),EC50 (Adrenergic β2) [µM],IC50 [1] [µM],IC50 [2] [µM],Compound
0.88,0.000631,1.26,0.0631,"O=C1COc2c(CCNCCN(C(=O)CCNCCc3cc(F)ccc3F)C3CCCCCC3)ccc(O)c2N1 [Example 64, N-Cycloheptyl-3-(2,5-difluorophenethylamino)-N-(2-(2-(5-hydroxy-3-oxo-3,4-dihydro-2H-benzo[b][1,4]oxazin-8-yl)ethylamino)ethyl)propanamide bis(trifluoroacetate)]"
0.89,0.002,1,0.1,"O=C1COc2c(CCNCCN(C(=O)CCNCCc3ccc(F)c(Cl)c3)C3CCCCC3)ccc(O)c2N1 [Example 37, 3-(3-Chloro-4-fluorophenethylamino)-N-cyclohexyl-N-(2-(2-(5-hydroxy-3-oxo-3,4-dihydro-2H-benzo[b][1,4]oxazin-8-yl)ethylamino)ethyl)propanamide bis(trifluoroacetate)]"
0.88,0.00158,0.794,0.158,"O=C1COc2c(CCNCCN(C(=O)CCNCCc3cccc(F)c3)C3CCCCCC3)ccc(O)c2N1 [Example 69, N-Cycloheptyl-3-(3-fluorophenethylamino)-N-(2-(2-(5-hydroxy-3-oxo-3,4-dihydro-2H-benzo[b][1,4]oxazin-8-yl)ethylamino)ethyl)propanamide bis(trifluoroacetate)]"
0.98,0.00158,1.26,0.1,"O=C1COc2c(CCNCCN(C(=O)CCNCCc3cccc(Cl)c3F)C3CCCCC3)ccc(O)c2N1 [Example 39, 3-(3-Chloro-2-fluorophenethylamino)-N-cyclohexyl-N-(2-(2-(5-hydroxy-3-oxo-3,4-dihydro-2H-benzo[b][1,4]oxazin-8-yl)ethylamino)ethyl)propanamide bis(trifluoroacetate)]"
0.86,0.00398,0.251,0.0631,"Cc1cc(CCNCCC(=O)N(CCNCCc2ccc(O)c3c2OCC(=O)N3)C2CCCCCC2)ccc1F [Example 62, N-Cycloheptyl-3-(4-fluoro-3-methylphenethylamino)-N-(2-(2-(5-hydroxy-3-oxo-3,4-dihydro-2H-benzo[b][1,4]oxazin-8-yl)ethylamino)ethyl)propanamide bis(trifluoroacetate)]"
0.87,0.00158,> 10,0.251,"O=C1COc2c(CCNCCN(C(=O)CCNCCc3cc(F)cc(F)c3)C3CCCCC3)ccc(O)c2N1 [Example 35, N-Cyclohexyl-3-(3,5-difluorophenethylamino)-N-(2-(2-(5-hydroxy-3-oxo-3,4-dihydro-2H-benzo[b][1,4]oxazin-8-yl)ethylamino)ethyl)propanamide bis(trifluoroacetate)]"

# — patent publication US20100056508A1, “AMINE DERIVATIVES AND THEIR USE IN BETA-2-ADRENORECEPTOR MEDIATED DISEASES” (ASTRAZENECA AB, priority 2006, published 2010)
